For data set [1], the target named is human 20S proteasome, chymotrypsin-like (ChT-L) activity (Homo sapiens, UniProt P28074). The following applies: SDS-activated human 20S.
Description: (§1) An assay buffer was composed of 50 mM Tris-HCl (pH 8.1) and 0.02% (w/v) SDS (exceptionally, T-L activity was measured in Tris buffer without SDS, that may trigger precipitation of substrates containing the guanidino group [21]). […] The SFTI-1 analogues were incubated with 20S proteasome in assay buffer at 37°C for 30 min. Reactions were performed in 96-well black BRAND plates (Germany). The final volume of the solution in each well was 200 µL. […] Proteasomal subsite activities were determined by monitoring the AMC liberation over time with a Fluorostar Omega (BMG Labtech, Germany) using excitation and emission wavelengths of 380 nm and 450 nm, respectively. […] Association constants Ka were measured as described previously [14] and calculated using a two-parameter fit model (using the GraFit software package).
The test system of data set [2] is rat and porcine 20S proteasomes, ChT-L. Also on record: method as in PMID 19054805. The following applies: cited from earlier work.
In data set [3] the test system is rat and porcine 20S proteasomes, T-L. Set-up: method as in PMID 19054805. The following applies: cited from earlier work.
Data set [4] has as its system rat and porcine 20S proteasomes, C-L site. Set-up: method as in PMID 19054805. The conditions noted are these: cited from earlier work.
Another data set deals with porcine 20S C–L activity. Set-up: method as in PMID 19054805. The conditions noted are these: cited from earlier work.
Data set [5] deals with human 20S proteasome, caspase-like (C-L) activity (Homo sapiens, UniProt P28072). As to the kind of experiment: C-L activity of SDS-activated human 20S proteasome (Z-LLE-AMC). The following applies: SDS-activated human 20S.
Description: as §1
In data set [6] the target is human 20S proteasome, trypsin-like (T-L) activity (Homo sapiens, UniProt Q99436). Nature of the data set: T-L activity of latent human 20S proteasome (Z-LLR-AMC, no SDS). The following applies: latent human 20S, around 40 µM.
Description: The peptidase activities of 20S proteasome were assayed using fluorogenic tri- and tetra-peptides coupled at their C-termini with 7-amino-4-methylcoumarin group (AMC). The initial concentration of purified yeast 20S proteasome [E0] […] An assay buffer was composed of 50 mM Tris-HCl (pH 8.1) and 0.02% (w/v) SDS (exceptionally, T-L activity was measured in Tris buffer without SDS, that may trigger precipitation of substrates containing the guanidino group [21]). […] The SFTI-1 analogues were incubated with 20S proteasome in assay buffer at 37°C for 30 min. Reactions were performed in 96-well black BRAND plates (Germany). The final volume of the solution in each well was 200 µL. […] Proteasomal subsite activities were determined by monitoring the AMC liberation over time with a Fluorostar Omega (BMG Labtech, Germany) using excitation and emission wavelengths of 380 nm and 450 nm, respectively.
A further data set has as its system bovine β-trypsin. The following applies: cited from earlier work.
Data set [7] concerns 20S proteasome. Set-up: method as in PMID 19054805. The conditions noted are these: cited from earlier work.
Data set [8] relates to 20S proteasome, ChT-L activity. The following applies: cited from earlier work.
The subject of data set [9] is 20S proteasome, T-L activity. The following applies: cited from earlier work.
In data set [10] the test system is 20S proteasome, C-L activity. The following applies: cited from earlier work.
Another data set relates to HCT-116. Also on record: method as in PMID 10805568. The following applies: human cancer cells HCT-116; read-out: cytotoxic activity IC50, HCT-116; cited from earlier work.
For the next data set, the system named is HL-60. Also on record: method as in PMID 10805568. The conditions noted are these: human cancer cells HL-60; read-out: cytotoxic activity IC50, HL-60; cited from earlier work.
The next data set relates to bovine α-chymotrypsin. Set-up: method as in PMID 15746161. The following applies: determined previously in the authors' laboratory; cited from earlier work.
The test system of data set [11] is 20S proteasome. Set-up: method as in PMID 10805568. The conditions noted are these: ChT-L, T-L and C-L; cited from earlier work.

A word on the IC50: it is the concentration needed to halve the response being measured. In the case of “bovine pancreatic trypsin inhibitor [BPTI]”, the “inhibition of ChT-L activity at 4 µM” value in data set [1] (4 µM inhibitor) was 60%. For the same compound, in data set [1] (ten-fold higher than 4 µM, data not shown), the “inhibition of the ChT-L site at ten-fold higher concentration” value is 80%. For the same compound, the half-inhibitory concentration (IC50) is 420 nM in [2], 790 nM in [3] and 530 nM in data set [4]. Further, the Ki in data set [2] (competitive, read-out: inhibition constant Ki, ChT-L) is 2000 nM. The “inhibition of porcine 20S C–L activity at 2 µM” value with porcine 20S C–L activity is reported as 86%. For the same compound, the “effect on C-L activity at concentrations lower than 1 µM” value in data set [5] is listed as “reduced the C-L activity significantly”. Moreover, the “maximal inhibition of C-L activity” value in data set [5] (even at 12 µM, data not shown) was not above 80%. In data set [6], the “reduction of T-L activity at around 40 µM” value came out at 60%.

sunflower trypsin inhibitor SFTI-1: in the data set on bovine β-trypsin, the “association constant Ka with trypsin” value was 1.1e+10 M⁻¹. Further, the Ki at bovine β-trypsin (read-out: inhibitory constant Ki, trypsin) was 0.5 nM. In addition, the “inhibition of 20S proteasome” value in the data set on 20S proteasome [7] is “does not cause any inhibition”. Moreover, in data set [5] (read-out: C-like Human 20S IC50, pH 8.1, 37°C, Z-LLE-AMC 79 µM), the IC50 came out at 58200 nM.

Regarding `C/C=C\NC(=O)[C@H]1NC(=O)[C@H](CC(N)=O)NC(=O)[C@@H](NC(=O)C(=O)[C@@H](C)CC)Cc2ccc(O)c(c2)-c2cccc3c2NC(=O)[C@@]3(O)[C@@H]1O` [TMC-95A], the IC50 in data set [8] (read-out: IC50 ChT-L activity of 20S proteasome) was 5.4 nM; in data set [9] (read-out: IC50 T-L activity of 20S proteasome), 200 nM; in data set [10] (read-out: IC50 C-L activity of 20S proteasome), 60 nM; in the data set on HCT-116, 4400 nM; in the data set on HL-60, 9800 nM. The Ki in [8] (read-out: Ki app (apparent Ki constant) ChT-L) was 1.1 nM; in data set [9] (read-out: Ki app (apparent Ki constant) T-L), 810 nM; in [10] (read-out: Ki app (apparent Ki constant) C-L), 29 nM.

For the compound [Phe^5]SFTI-1, the “Ka with bovine α-chymotrypsin” value in the data set with bovine α-chymotrypsin is 2e+09 M⁻¹.

On to `C/C=C\NC(=O)[C@H]1NC(=O)[C@H](CC(N)=O)NC(=O)[C@@H](NC(=O)C(=O)[C@H](C)CC)Cc2ccc(O)c(c2)-c2cccc3c2NC(=O)[C@@]3(O)[C@H]1O` [TMC-95D], for which the “times weaker than TMC-95A” value with 20S proteasome [11] is recorded as 20–150 times.

These data come from article PMC3934894, “Inhibition of Human and Yeast 20S Proteasome by Analogues of Trypsin Inhibitor SFTI-1” (PLoS ONE, 2014).
